Data from PubChem BioAssay (NCI).
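48-hour exposure; five concentrations; linearly interpolated endpoints. GI50 = concentration required for 50% inhibition of growth. TGI: total growth inhibition.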

How the values were obtained:
Test in all cases: NCI anticancer screen, dose series, 48 h
OVCAR-5 ovarian = tested on: OVCAR-5 ovarian
SK-MEL-28 melanoma = tested on: SK-MEL-28 melanoma
NCI-H23 lung = tested on: NCI-H23 lung
EKVX NSCLC = tested on: EKVX NSCLC
MOLT-4 leukemia = tested on: MOLT-4 leukemia
BT-549 breast = tested on: BT-549 breast
CAKI-1 renal = tested on: CAKI-1 renal
DU-145 prostate = tested on: DU-145 prostate
SK-MEL-5 melanoma = tested on: SK-MEL-5 melanoma
COLO 205 colon = tested on: COLO 205 colon
OVCAR-8 ovarian = tested on: OVCAR-8 ovarian
SK-MEL-2 melanoma = tested on: SK-MEL-2 melanoma
KM12 colon = tested on: KM12 colon
A498 renal = tested on: A498 renal
PC-3 prostate = tested on: PC-3 prostate
SF-268 CNS = tested on: SF-268 CNS
786-0 renal = tested on: 786-0 renal
MDA-MB-231 breast = tested on: MDA-MB-231 breast
UACC-257 melanoma = tested on: UACC-257 melanoma
UO-31 renal = tested on: UO-31 renal
CCRF-CEM leukemia = tested on: CCRF-CEM leukemia
A549 NSCLC = tested on: A549 NSCLC
SR leukemia = tested on: SR leukemia
SNB-19 CNS = tested on: SNB-19 CNS
HS 578T breast = tested on: HS 578T breast
HL-60(TB) leukemia = tested on: HL-60(TB) leukemia
K-562 leukemia = tested on: K-562 leukemia
SN12C renal = tested on: SN12C renal
HOP-62 NSCLC = tested on: HOP-62 NSCLC
MALME-3M melanoma = tested on: MALME-3M melanoma
SK-OV-3 ovarian = tested on: SK-OV-3 ovarian
RXF 393 renal = tested on: RXF 393 renal
HCT-116 colon = tested on: HCT-116 colon
UACC-62 melanoma = tested on: UACC-62 melanoma
SF-295 CNS = tested on: SF-295 CNS
MDA-MB-435 = tested on: MDA-MB-435
SF-539 CNS = tested on: SF-539 CNS
SW-620 colon = tested on: SW-620 colon
TK-10 renal = tested on: TK-10 renal
MCF7 breast = tested on: MCF7 breast
NCI-H460 lung = tested on: NCI-H460 lung
IGROV1 ovarian = tested on: IGROV1 ovarian
OVCAR-4 ovarian = tested on: OVCAR-4 ovarian
T-47D breast = tested on: T-47D breast
NCI-H226 lung = tested on: NCI-H226 lung
NCI/ADR-RES ovarian = tested on: NCI/ADR-RES ovarian
OVCAR-3 ovarian = tested on: OVCAR-3 ovarian
NCI-H522 lung = tested on: NCI-H522 lung

SMILES: Cc1ccc(/C(=C/C=C(C#N)C#N)Sc2nc3ccccc3s2)cc1
- GI50 (OVCAR-5 ovarian): 24.1 µM
- TGI (OVCAR-5 ovarian): 42.1 µM
- GI50 (SK-MEL-28 melanoma): 5.14 µM
- TGI (SK-MEL-28 melanoma): 23.9 µM
- GI50 (NCI-H23 lung): 3.36 µM
- TGI (NCI-H23 lung): 11.6 µM
- GI50 (EKVX NSCLC): 17.7 µM
- TGI (EKVX NSCLC): 39.4 µM
- GI50 (MOLT-4 leukemia): > 100 µM
- TGI (MOLT-4 leukemia): > 100 µM
- GI50 (BT-549 breast): 0.793 µM
- TGI (BT-549 breast): 3.65 µM
- GI50 (CAKI-1 renal): 2.72 µM
- TGI (CAKI-1 renal): 8.35 µM
- GI50 (DU-145 prostate): 4.18 µM
- TGI (DU-145 prostate): 14.5 µM
- GI50 (SK-MEL-5 melanoma): 13.3 µM
- TGI (SK-MEL-5 melanoma): 26.6 µM
- GI50 (COLO 205 colon): 3.84 µM
- TGI (COLO 205 colon): 16 µM
- GI50 (OVCAR-8 ovarian): 4.35 µM
- TGI (OVCAR-8 ovarian): 65.6 µM
- GI50 (SK-MEL-2 melanoma): 4.95 µM
- TGI (SK-MEL-2 melanoma): 27.1 µM
- GI50 (KM12 colon): 4.72 µM
- TGI (KM12 colon): 28.9 µM
- GI50 (A498 renal): 20.9 µM
- TGI (A498 renal): 35.9 µM
- GI50 (PC-3 prostate): 2.25 µM
- TGI (PC-3 prostate): 6.52 µM
- GI50 (SF-268 CNS): 5.81 µM
- TGI (SF-268 CNS): 22.1 µM
- GI50 (786-0 renal): 2.43 µM
- TGI (786-0 renal): 6.78 µM
- GI50 (MDA-MB-231 breast): 2.18 µM
- TGI (MDA-MB-231 breast): 5.56 µM
- GI50 (UACC-257 melanoma): 12.1 µM
- TGI (UACC-257 melanoma): 27.3 µM
- GI50 (UO-31 renal): 3.41 µM
- TGI (UO-31 renal): 22.5 µM
- GI50 (CCRF-CEM leukemia): 0.465 µM
- TGI (CCRF-CEM leukemia): 3.02 µM
- GI50 (A549 NSCLC): 19.8 µM
- TGI (A549 NSCLC): 45.5 µM
- GI50 (SR leukemia): > 100 µM
- TGI (SR leukemia): > 100 µM
- GI50 (SNB-19 CNS): 14.8 µM
- TGI (SNB-19 CNS): 34.1 µM
- GI50 (HS 578T breast): 9.86 µM
- TGI (HS 578T breast): 56.1 µM
- GI50 (HL-60(TB) leukemia): 7.02 µM
- TGI (HL-60(TB) leukemia): > 100 µM
- GI50 (K-562 leukemia): 6.25 µM
- TGI (K-562 leukemia): > 100 µM
- GI50 (SN12C renal): 1.98 µM
- TGI (SN12C renal): 4.55 µM
- GI50 (HOP-62 NSCLC): 10.1 µM
- TGI (HOP-62 NSCLC): 30.3 µM
- GI50 (MALME-3M melanoma): 2.52 µM
- TGI (MALME-3M melanoma): 6.57 µM
- GI50 (SK-OV-3 ovarian): 14.1 µM
- TGI (SK-OV-3 ovarian): 30 µM
- GI50 (RXF 393 renal): 3.78 µM
- TGI (RXF 393 renal): 13.8 µM
- GI50 (HCT-116 colon): 2.47 µM
- TGI (HCT-116 colon): 6.3 µM
- GI50 (UACC-62 melanoma): 2.6 µM
- TGI (UACC-62 melanoma): 6.22 µM
- GI50 (SF-295 CNS): 5.77 µM
- TGI (SF-295 CNS): 21 µM
- GI50 (MDA-MB-435): 3.54 µM
- TGI (MDA-MB-435): 13.1 µM
- GI50 (SF-539 CNS): 4.77 µM
- TGI (SF-539 CNS): 20.8 µM
- GI50 (SW-620 colon): 2.42 µM
- TGI (SW-620 colon): 5.73 µM
- GI50 (TK-10 renal): 2.42 µM
- TGI (TK-10 renal): 6.37 µM
- GI50 (MCF7 breast): 4.3 µM
- TGI (MCF7 breast): 32.7 µM
- GI50 (NCI-H460 lung): 18.3 µM
- TGI (NCI-H460 lung): 75.3 µM
- GI50 (IGROV1 ovarian): 4.78 µM
- TGI (IGROV1 ovarian): 29.8 µM
- GI50 (OVCAR-4 ovarian): 6.68 µM
- TGI (OVCAR-4 ovarian): 87.6 µM
- GI50 (T-47D breast): 5.2 µM
- TGI (T-47D breast): 35.7 µM
- GI50 (NCI-H226 lung): 3.5 µM
- TGI (NCI-H226 lung): 8.01 µM
- GI50 (NCI/ADR-RES ovarian): 4.24 µM
- TGI (NCI/ADR-RES ovarian): 18.7 µM
- GI50 (OVCAR-3 ovarian): 4.49 µM
- TGI (OVCAR-3 ovarian): 19 µM
- GI50 (NCI-H522 lung): 7.36 µM
- TGI (NCI-H522 lung): 32.9 µM
